The results in this text go back to patent US6992103B2, “Benzamide derivatives, processes for their preparation, and their pharmaceutical use” (SmithKline Beecham P.L.C., priority 2001, dated 2006).

Read-outs that look alike come from different tables or passages of the source.

What all share (type): biochemical
One assay addresses Asp-2 (Homo sapiens, UniProt P56817). Kind of assay: Asp-2 Inhibitory Assay (FAM-[SEVNLDAEFK]-TAMRA substrate cleavage, fluorescence). The conditions noted are these: Assay (I). How it is done:
(I) Asp-2 Inhibitory Assay
(§1) For each compound being assayed, in a 384 well plate, is added:
(§2) a) 1 μl of a DMSO solution of the test compound (IC50 curve uses ten 1 in 2 serial dilutions from 500 μM).
b) 10 μl of substrate (FAM-[SEVNLDAEFK]-TAMRA) solution in buffer. This is prepared by diluting 2 ml of a 2 mM DMSO solution of the substrate into 400 ml of buffer (100 mM Sodium acetate pH=4.5, 1 l Milli-Q water, 0.06% Triton X-100 (0.5 ml/l), pH adjusted to 4.5 using glacial acetic acid). Aminomethyl fluorescein (FAM) and tetramethyl rhodamine (TAMRA) are fluorescent molecules which co-operate to emit fluorescence at 535 nm upon cleavage of the SEVNLDAEFK peptide. c) 10 μl enzyme solution. This is prepared by diluting 16 ml of a 500 nM enzyme solution into 384 ml of buffer (prepared as above).
(§3) Blank wells (enzyme solution replaced by buffer) are included as controls on each plate. Wells are incubated for 1 h at room temperature and fluorescence read using a Tecan Ultra Fluorimeter/Spectrophotometer (485 nm excitation, 535 nm emission).

A further assay concerns the target Cathepsin D (Homo sapiens, UniProt P07339). Put plainly: Cathepsin D Inhibitory Assay (FAM-SEVNLDAEFK-TAMRA substrate cleavage, fluorescence). The conditions noted are these: Assay (III). How it is done: (II) Cathepsin D Inhibitory Assay
as §1, §2
b) 10 μl of substrate (FAM-SEVNLDAEFK-TAMRA) solution in buffer. This is prepared by diluting 2 ml of a 2 mM DMSO solution of the substrate into 400 ml of buffer (100 mM Sodium acetate pH=4.5, 1 l Milli-Q water, 0.06% Triton X-100 (0.5 ml/l), pH adjusted to 4.5 using glacial acetic acid). c) 10 μl enzyme solution. This is prepared by diluting 1.6 ml of a 200 unit/ml (in 10 mM HCl) enzyme solution into 398.4 ml of buffer (prepared as above).
as §3

The target of the next assay is T1, Asp-1 (Homo sapiens, UniProt Q9Y5Z0).
T1 sequence (Q9Y5Z0 63-518): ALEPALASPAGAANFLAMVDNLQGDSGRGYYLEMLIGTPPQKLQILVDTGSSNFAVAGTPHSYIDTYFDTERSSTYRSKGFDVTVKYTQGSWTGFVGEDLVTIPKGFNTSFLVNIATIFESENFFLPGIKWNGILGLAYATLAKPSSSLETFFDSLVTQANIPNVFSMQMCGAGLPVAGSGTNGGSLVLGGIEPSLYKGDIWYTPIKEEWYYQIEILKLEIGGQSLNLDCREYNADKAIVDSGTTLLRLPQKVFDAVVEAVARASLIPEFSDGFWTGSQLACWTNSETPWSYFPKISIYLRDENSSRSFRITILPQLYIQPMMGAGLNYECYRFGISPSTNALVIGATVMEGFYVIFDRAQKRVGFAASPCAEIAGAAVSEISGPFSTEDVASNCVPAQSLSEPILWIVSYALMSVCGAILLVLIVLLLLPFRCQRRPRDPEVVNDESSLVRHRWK
Kind of assay: Asp-1 Inhibitory Assay (FAM-[SEVNLDAEFK]-TAMRA substrate cleavage, fluorescence). The conditions noted are these: Assay (II), pH 4.5, 2 h room temperature. How it is done: (II) Asp-1 Inhibitory Assay
as §1, §2
b) 10 μl of substrate (FAM-[SEVNLDAEFK]-TAMRA) solution in buffer. This is prepared by diluting 2 ml of a 2 mM DMSO solution of the substrate into 400 ml of buffer (100 mM Sodium acetate pH=4.5, 1 l Milli-Q water, 0.06% Triton X-100 (0.5 ml/l), pH adjusted to 4.5 using glacial acetic acid). c) 10 μl enzyme solution. This is prepared by diluting 4 ml of a 6.3 μM enzyme solution into 496 ml of buffer (100 mM Sodium acetate pH=4.5, 40 mM sodium chloride, 900 ml Milli-Q water, 100 ml glycerol, 0.2% CHAPS (2 g/l), pH adjusted to 4.5 using glacial acetic acid).
Blank wells (enzyme solution replaced by buffer) are included as controls on each plate. Wells are incubated for 2 h at room temperature and fluorescence read using a Tecan Ultra Fluorimeter/Spectrophotometer (485 nm excitation, 535 nm emission).

[1] abbreviates: range given for a group of Examples, read-out: range of inhibition (Asp-2).
[2] abbreviates: range given for a group of Examples, read-out: range of inhibition (CatD).
Setting [3] is: pH 4.5, 1 h room temperature, read-out: Asp-2 IC50.
The mark [4] stands for this setting: pH 4.5, 1 h room temperature, read-out: Cat. D IC50.

Cathepsin D, sequence (P07339 65-412, species assumed): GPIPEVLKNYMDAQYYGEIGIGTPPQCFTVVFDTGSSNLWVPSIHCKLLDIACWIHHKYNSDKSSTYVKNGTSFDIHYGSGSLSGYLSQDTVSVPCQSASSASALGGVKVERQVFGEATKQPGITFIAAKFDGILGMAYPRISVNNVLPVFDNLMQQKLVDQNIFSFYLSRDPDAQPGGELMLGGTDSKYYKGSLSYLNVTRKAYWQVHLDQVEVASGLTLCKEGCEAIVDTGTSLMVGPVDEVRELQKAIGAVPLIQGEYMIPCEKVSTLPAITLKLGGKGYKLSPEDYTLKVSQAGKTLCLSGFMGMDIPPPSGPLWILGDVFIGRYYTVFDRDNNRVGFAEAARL
Asp-2, sequence (P56817 46-501): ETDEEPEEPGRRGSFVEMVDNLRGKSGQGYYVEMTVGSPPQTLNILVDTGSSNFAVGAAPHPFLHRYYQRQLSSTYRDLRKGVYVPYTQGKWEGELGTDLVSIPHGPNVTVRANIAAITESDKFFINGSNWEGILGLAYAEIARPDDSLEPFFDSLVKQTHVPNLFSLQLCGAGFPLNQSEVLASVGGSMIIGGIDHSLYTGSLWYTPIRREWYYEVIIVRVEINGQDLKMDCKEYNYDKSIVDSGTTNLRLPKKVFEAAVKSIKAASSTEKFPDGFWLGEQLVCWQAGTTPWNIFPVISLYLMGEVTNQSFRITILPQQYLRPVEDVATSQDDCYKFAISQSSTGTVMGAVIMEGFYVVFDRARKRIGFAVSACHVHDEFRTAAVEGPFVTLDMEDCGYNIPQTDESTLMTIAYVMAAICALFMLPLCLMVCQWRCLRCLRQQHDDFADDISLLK

On to `CC(C)Oc1cc(C(=O)N[C@@H](Cc2ccccc2)[C@@H](O)C[C@@H](C)C(=O)NC2CCC2)cc(N2CCCC2=O)c1` [Example E26, N-[(1S,2S,4R)-1-Benzyl-4-(cyclobutylcarbamoyl)-2-hydroxypentyl]-3-isopropoxy-5-(2-oxopyrrolidin-1-yl)benzamide], for which the IC50 fell in the range of 2 to 30 nM on Asp-2 (setting [1]) and 340 to 3000 nM at Cathepsin D (setting [2]).
For `C[C@H](C[C@H](O)[C@H](Cc1ccccc1)NC(=O)c1cccc(N2CCCC2=O)c1F)C(=O)NC1CC2CCC1C2` (stereo partly drawn) [Example E21, N-[(1S,2S,4R)-1-Benzyl-4-(bicyclo[2.2.1]hept-2-ylcarbamoyl)-2-hydroxypentyl]-2-fluoro-3-(2-oxopyrrolidin-1-yl)-benzamide], the IC50 at Asp-2 (setting [1]) lay within 2 to 30 nM; on Cathepsin D (setting [2]), 340 to 3000 nM.
As for `C=CCOc1cc(C(=O)N[C@@H](Cc2ccccc2)[C@@H](O)C[C@@H](C)C(=O)NCCC(C)(C)C)cc(N2CCCC2=O)c1` [Example E3, 3-Allyloxy-N-[(1S,2S,4R)-1-benzyl-4-(3,3-dimethylbutylcarbamoyl)-2-hydroxypentyl]-5-(2-oxopyrrolidin-1-yl)-benzamide], the IC50 at Asp-2 (setting [3]) came to 60 nM; against Asp-1 it was 420 nM; on Cathepsin D (setting [4]), 2900 nM.
Consider `C[C@H](C[C@H](O)[C@H](Cc1ccccc1)NC(=O)c1cc(N2CCCC2=O)cc(N2CCCC2=O)c1)C(=O)NC1CC2CCC1C2` (stereo partly drawn) [Example E8, N-[(1S,2S,4R)-1-Benzyl-4-(bicyclo[2.2.1]hept-2-ylcarbamoyl)-2-hydroxypentyl]-3,5-bis-(2-oxopyrrolidin-1-yl)benzamide], for which the IC50 lay within 2 to 30 nM at Asp-2 (setting [1]) and 340 to 3000 nM at Cathepsin D (setting [2]).
On to `C[C@H](C[C@H](O)[C@H](Cc1ccccc1)NC(=O)c1ccc(F)c(N2CCCC2=O)c1)C(=O)NCCC(C)(C)C` (stereo in doubt) [Example E1, N-[(1S,2S,4R)-1-Benzyl-4-(3,3-dimethylbutylcarbamoyl)-2-hydroxypentyl]-4-fluoro-3-(2-oxopyrrolidin-1-yl)-benzamide], for which the IC50 on Asp-2 (setting [3]) stood at 600 nM; at Asp-1 it was 6000 nM; at Cathepsin D (setting [4]) it was 13000 nM.
In the case of `CC(=O)Nc1cc(C(=O)N[C@@H](Cc2ccccc2)[C@@H](O)C[C@@H](C)C(=O)NC2CC3CCC2C3)cc(N2CCCC2=O)c1` (stereo partly drawn) [Example E10, 3-Acetylamino-N-[(1S,2S,4R)-1-benzyl-4-(bicyclo[2.2.1]hept-2-ylcarbamoyl)-2-hydroxypentyl]-5-(2-oxopyrrolidin-1-yl)benzamide], the IC50 lay within 2 to 30 nM at Asp-2 (setting [1]) and 340 to 3000 nM on Cathepsin D (setting [2]).
With `C[C@H](C[C@H](O)[C@H](Cc1ccccc1)NC(=O)c1cc(N2CCCC2=O)cc(N2CCCC2=O)c1F)C(=O)NC1CC2CCC1C2` (stereo partly drawn) [Example E22, N-[(1S,2S,4R)-1-Benzyl-4-(bicyclo[2.2.1]hept-2-ylcarbamoyl)-2-hydroxypentyl]-2-fluoro-3,5-bis-(2-oxopyrrolidin-1-yl)benzamide], the IC50 at Asp-2 (setting [1]) lay in the range of 2 to 30 nM; on Cathepsin D (setting [2]), 340 to 3000 nM.
Take `C[C@H](C[C@H](O)[C@H](Cc1ccccc1)NC(=O)c1cc(N2CCCC2=O)cc(N2CCCC2=O)c1F)C(=O)NC1CCC(C(C)(C)C)CC1` (stereo partly drawn) [Example E32, N-[(1S,2S,4R)-1-Benzyl-4-(4-tert-butylcyclohexylcarbamoyl)-2-hydroxypentyl]-2-fluoro-3,5-bis-(2-oxopyrrolidin-1-yl)benzamide]: the figures for the IC50 at Asp-2 (setting [1]) and on Cathepsin D (setting [2]) were 2 to 30 nM and 340 to 3000 nM, respectively.
Regarding `CCCOc1cc(C(=O)N[C@@H](Cc2ccccc2)[C@@H](O)C[C@@H](C)C(=O)NCCC(C)(C)C)cc(N2CCCC2=O)c1` [Example E4, N-[(1S,2S,4R)-1-Benzyl-4-(3,3-dimethylbutylcarbamoyl)-2-hydroxypentyl]-3-(2-oxopyrrolidin-1-yl)-5-propoxybenzamide], the values for the IC50 on Asp-2 (setting [3]), against Asp-1 and on Cathepsin D (setting [4]) were 35 nM, 150 nM and 1800 nM, respectively.
Consider `CC(C)Oc1cc(C(=O)N[C@@H](Cc2ccccc2)[C@@H](O)C[C@@H](C)C(=O)NC2CC3CCC2C3)cc(N2CCCC2=O)c1` (stereo partly drawn) [Example E14, N-[(1S,2S,4R)-1-Benzyl-4-(bicyclo[2.2.1]hept-2-ylcarbamoyl)-2-hydroxypentyl]-3-isopropoxy-5-(2-oxopyrrolidin-1-yl)benzamide], for which the values for the IC50 at Asp-2 (setting [1]) and at Cathepsin D (setting [2]) were 2 to 30 nM and 340 to 3000 nM, respectively.
